Results: patent US11427586B2, “1,2,4-oxadiazole derivatives as liver X receptor agonists” (NOVARTIS AG, priority 2019, dated 2022)
Read-outs that look alike come from different tables or passages of the source.

What was measured:
[1] = tested on: SCD1; experiment: Measurement of SCD1 expression in SZ95-SCD1-HiBit cells (HiBiT assay); type: cell-based; conditions: Homo sapiens, 48 h; for EC50: SCD1 protein production, luminescence, initial dilution 1:3 in DMSO, read-out: HiBit EC50
[2] = tested on: SZ95 sebocytes; experiment: Sentinel Lipid Assay (SLA), desaturation index in SZ95 sebocytes; type: cell-based; conditions: Homo sapiens, 72 h; for EC50: desaturation index, lowest dose used 4.6 nM, read-out: SLA EC50
Summary of the method: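 SZ95 human sebocytes on fibronectin-coated plates, dosed 72 h at 37 °C with 1:3 dilutions from 10 μM; lipids extracted with deuterated triglyceride internal standards and quantified by LC-MS/MS (MRM) as 11 sentinel lipids. Desaturation index from elastic-net coefficients, normalized to DMSO; Amax relative to a reference LXR agonist.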

[3] = normalized Amax based on the reference compound Amax of 100%, read-out: HiBit Normalized Amax
[4] = SZ95-SCD1-HiBit cells, compared to reference compound, read-out: HiBit Amax
[5] = normalized Amax based on the reference compound Amax of 100%, read-out: SLA Normalized Amax
[6] = SZ95 cells, compared to reference compound, read-out: SLA Amax

SMILES	EC50 ([1]; SZ95-SCD1-HiBit cells) [nM]	EC50 ([2]; SZ95 cells) [nM]	Emax [1, 3] [%]	Emax [1, 4] [%]	Emax [2, 5] [%]	Emax [2, 6] [%]
CC(C)CS(=O)(=O)c1ccccc1Oc1ccc(-c2noc(CN3C(=O)N(CCN4CCOCC4)C4(CCN(CC5CC5)CC4)C3=O)n2)cc1C(F)(F)F [Compound 27, 8-(cyclopropylmethyl)-3-((3-(4-(2-(isobutylsulfonyl)phenoxy)-3-(trifluoromethyl)phenyl)-1,2,4-oxadiazol-5-yl)methyl)-1-(2-morpholinoethyl)-1,3,8-triazaspiro[4.5]decane-2,4-dione]	0.254	≤ 4.6	89.1	84.7	114	109
CC(C)CS(=O)(=O)c1ccccc1Oc1ccc(-c2noc(CN3C(=O)N(CCN4CCOCC4)C4(CCN(C(=O)c5cncnc5)CC4)C3=O)n2)cc1C(F)(F)F [Compound 29, 3-((3-(4-(2-(isobutylsulfonyl)phenoxy)-3-(trifluoromethyl)phenyl)-1,2,4-oxadiazol-5-yl)methyl)-1-(2-morpholinoethyl)-8-(pyrimidine-5-carbonyl)-1,3,8-triazaspiro[4.5]decane-2,4-dione]	0.796	≤ 4.6	87.7	83.4	135	129
CC(COc1ccc(-c2noc(CN3C(=O)N(CCN4CCOCC4)C4(CCN(C(=O)c5cncnc5)CC4)C3=O)n2)cc1C(F)(F)F)(C(F)(F)F)C(F)(F)F [Compound 30, 1-(2-morpholinoethyl)-8-(pyrimidine-5-carbonyl)-3-((3-(4-(3,3,3-trifluoro-2-methyl-2-(trifluoromethyl)propoxy)-3-(trifluoromethyl)phenyl)-1,2,4-oxadiazol-5-yl)methyl)-1,3,8-triazaspiro[4.5]decane-2,4-dione]	1.04	34.4	89.3	84.9	85.5	82.1
CC(COc1ccc(-c2noc(CN3C(=O)N(CCC4CCOCC4)C4(CCN(C(=O)c5cncnc5)CC4)C3=O)n2)cc1C(F)(F)F)(C(F)(F)F)C(F)(F)F [Compound 31, 8-(pyrimidine-5-carbonyl)-1-(2-(tetrahydro-2H-pyran-4-yl)ethyl)-3-((3-(4-(3,3,3-trifluoro-2-methyl-2-(trifluoromethyl)propoxy)-3-(trifluoromethyl)phenyl)-1,2,4-oxadiazol-5-yl)methyl)-1,3,8-triazaspiro[4.5]decane-2,4-dione]	0.44	≤ 4.6	82.3	78.3	100	96.3

The next lines start with results.

EC50 ([1]; SZ95-SCD1-HiBit cells) [nM]	EC50 ([2]; SZ95 cells) [nM]	SMILES	Emax [1, 3] [%]	Emax [1, 4] [%]	Emax [2, 5] [%]	Emax [2, 6] [%]
0.697	≤ 4.6	CC(C)CS(=O)(=O)c1ccccc1Oc1ccc(-c2noc(CN3C(=O)N(CCN4CCOCC4)C4(CCN(C(=O)CC5CC5)CC4)C3=O)n2)cc1C(F)(F)F [Compound 28, 8-(2-cyclopropylacetyl)-3-((3-(4-(2-(isobutylsulfonyl)phenoxy)-3-(trifluoromethyl)phenyl)-1,2,4-oxadiazol-5-yl)methyl)-1-(2-morpholinoethyl)-1,3,8-triazaspiro[4.5]decane-2,4-dione]	74.8	71.1	145	139
2.42	≤ 4.6	CC(C)CS(=O)(=O)c1ccccc1Oc1ccc(-c2noc(CN3C(=O)N(CCN4CCOCC4)C4(CCN(C(=O)CCN(C)C)CC4)C3=O)n2)cc1C(F)(F)F [Compound 32, 8-(3-(dimethylamino)propanoyl)-3-((3-(4-(2-(isobutylsulfonyl)phenoxy)-3-(trifluoromethyl)phenyl)-1,2,4-oxadiazol-5-yl)methyl)-1-(2-morpholinoethyl)-1,3,8-triazaspiro[4.5]decane-2,4-dione]	84.9	80.7	100	96.2
